Source: patent US11299501B2 (BRISTOL-MYERS SQUIBB COMPANY, priority 2017, dated 2022)

Key:
Format in all cases: cell-based
human TLR8 = molecular target: T1, human TLR8 (Homo sapiens, UniProt Q9NR97); assay: TLR8 inhibition reporter assay (HEK-Blue SEAP); conditions: cells overexpressing human TLR8, SEAP reporter, stimulated with R848 15.9 μM, 22 hour incubation
T1 construct: host or cells: HEK-Blue cells
T1 sequence (Q9NR97 27-1041): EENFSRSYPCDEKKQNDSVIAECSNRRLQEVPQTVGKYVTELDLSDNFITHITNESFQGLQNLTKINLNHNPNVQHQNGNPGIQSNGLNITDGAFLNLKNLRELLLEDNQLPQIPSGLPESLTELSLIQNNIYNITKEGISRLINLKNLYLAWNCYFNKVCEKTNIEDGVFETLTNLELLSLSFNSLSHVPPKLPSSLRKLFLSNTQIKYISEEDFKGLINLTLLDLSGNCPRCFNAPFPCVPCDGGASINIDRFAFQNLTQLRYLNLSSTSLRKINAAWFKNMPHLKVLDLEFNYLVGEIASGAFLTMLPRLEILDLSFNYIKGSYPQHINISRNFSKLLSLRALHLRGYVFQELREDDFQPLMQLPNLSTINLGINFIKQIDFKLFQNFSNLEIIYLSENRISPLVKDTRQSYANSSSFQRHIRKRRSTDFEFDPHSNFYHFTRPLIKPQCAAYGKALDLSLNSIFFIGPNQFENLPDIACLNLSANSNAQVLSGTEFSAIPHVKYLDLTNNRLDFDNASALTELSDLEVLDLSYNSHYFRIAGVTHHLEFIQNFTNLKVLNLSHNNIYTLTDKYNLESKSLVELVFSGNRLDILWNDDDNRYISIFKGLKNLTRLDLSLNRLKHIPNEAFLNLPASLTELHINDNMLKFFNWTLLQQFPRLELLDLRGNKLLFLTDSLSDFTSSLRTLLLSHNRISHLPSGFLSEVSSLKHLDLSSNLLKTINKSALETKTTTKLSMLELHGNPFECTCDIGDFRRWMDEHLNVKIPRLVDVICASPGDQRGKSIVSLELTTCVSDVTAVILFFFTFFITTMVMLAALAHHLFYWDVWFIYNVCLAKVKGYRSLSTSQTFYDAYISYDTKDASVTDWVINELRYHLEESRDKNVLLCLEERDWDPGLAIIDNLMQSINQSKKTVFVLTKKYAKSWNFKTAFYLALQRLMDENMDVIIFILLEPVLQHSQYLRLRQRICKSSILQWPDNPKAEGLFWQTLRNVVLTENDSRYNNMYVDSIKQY
How it was run: (§1)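 HEK-Blue cells expressing human TLR7, TLR8 or TLR9 with NF-κB/AP-1-driven SEAP reporter pre-treated 30 min at room temperature with compound (0.05 nM–50 μM), then stimulated with gardiquimod 7.5 μM (TLR7), R848 15.9 μM (TLR8) or ODN2006 5 nM (TLR9). SEAP read after 22 h at 37 °C; % inhibition relative to agonist+DMSO and reference-inhibitor wells.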

human TLR9 = molecular target: T2, human TLR9 (Homo sapiens, UniProt Q9NR96); assay: TLR9 inhibition reporter assay (HEK-Blue SEAP); conditions: cells overexpressing human TLR9, SEAP reporter, stimulated with ODN2006 5 nM, 22 hour incubation
T2 construct: host or cells: HEK-Blue cells
T2 sequence (Q9NR96 26-1032): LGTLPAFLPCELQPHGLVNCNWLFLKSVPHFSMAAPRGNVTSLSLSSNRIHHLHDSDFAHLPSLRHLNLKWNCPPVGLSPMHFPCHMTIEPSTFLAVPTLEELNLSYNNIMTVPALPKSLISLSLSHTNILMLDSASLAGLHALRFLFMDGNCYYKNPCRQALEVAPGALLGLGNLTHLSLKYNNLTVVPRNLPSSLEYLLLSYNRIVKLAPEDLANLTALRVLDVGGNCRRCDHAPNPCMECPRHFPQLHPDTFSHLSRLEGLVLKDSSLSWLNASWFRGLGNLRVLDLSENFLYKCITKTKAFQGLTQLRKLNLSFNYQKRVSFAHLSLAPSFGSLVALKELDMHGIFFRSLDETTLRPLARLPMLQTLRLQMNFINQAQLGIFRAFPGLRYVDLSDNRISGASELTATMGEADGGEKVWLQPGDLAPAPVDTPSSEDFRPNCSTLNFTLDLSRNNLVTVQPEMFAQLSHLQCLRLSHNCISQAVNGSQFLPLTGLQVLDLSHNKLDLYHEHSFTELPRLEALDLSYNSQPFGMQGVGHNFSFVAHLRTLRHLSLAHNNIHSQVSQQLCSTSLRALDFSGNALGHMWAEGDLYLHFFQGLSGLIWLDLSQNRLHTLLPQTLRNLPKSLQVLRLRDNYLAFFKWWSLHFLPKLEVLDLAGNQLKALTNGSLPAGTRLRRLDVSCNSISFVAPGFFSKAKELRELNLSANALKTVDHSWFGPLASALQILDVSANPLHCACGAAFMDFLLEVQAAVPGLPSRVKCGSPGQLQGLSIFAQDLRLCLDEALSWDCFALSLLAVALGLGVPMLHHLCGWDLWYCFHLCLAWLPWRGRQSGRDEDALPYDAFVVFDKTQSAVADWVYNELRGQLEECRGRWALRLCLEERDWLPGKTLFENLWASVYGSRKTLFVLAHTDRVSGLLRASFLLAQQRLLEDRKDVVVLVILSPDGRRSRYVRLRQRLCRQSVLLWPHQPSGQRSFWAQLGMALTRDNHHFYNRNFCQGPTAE
How it was run: as §1

human TLR7 = molecular target: T3, human TLR7 (Homo sapiens, UniProt Q9NYK1); assay: TLR7 inhibition reporter assay (HEK-Blue SEAP); conditions: cells overexpressing human TLR7, SEAP reporter, stimulated with gardiquimod 7.5 μM, 22 hour incubation
T3 construct: host or cells: HEK-Blue cells
T3 sequence (Q9NYK1 27-1049): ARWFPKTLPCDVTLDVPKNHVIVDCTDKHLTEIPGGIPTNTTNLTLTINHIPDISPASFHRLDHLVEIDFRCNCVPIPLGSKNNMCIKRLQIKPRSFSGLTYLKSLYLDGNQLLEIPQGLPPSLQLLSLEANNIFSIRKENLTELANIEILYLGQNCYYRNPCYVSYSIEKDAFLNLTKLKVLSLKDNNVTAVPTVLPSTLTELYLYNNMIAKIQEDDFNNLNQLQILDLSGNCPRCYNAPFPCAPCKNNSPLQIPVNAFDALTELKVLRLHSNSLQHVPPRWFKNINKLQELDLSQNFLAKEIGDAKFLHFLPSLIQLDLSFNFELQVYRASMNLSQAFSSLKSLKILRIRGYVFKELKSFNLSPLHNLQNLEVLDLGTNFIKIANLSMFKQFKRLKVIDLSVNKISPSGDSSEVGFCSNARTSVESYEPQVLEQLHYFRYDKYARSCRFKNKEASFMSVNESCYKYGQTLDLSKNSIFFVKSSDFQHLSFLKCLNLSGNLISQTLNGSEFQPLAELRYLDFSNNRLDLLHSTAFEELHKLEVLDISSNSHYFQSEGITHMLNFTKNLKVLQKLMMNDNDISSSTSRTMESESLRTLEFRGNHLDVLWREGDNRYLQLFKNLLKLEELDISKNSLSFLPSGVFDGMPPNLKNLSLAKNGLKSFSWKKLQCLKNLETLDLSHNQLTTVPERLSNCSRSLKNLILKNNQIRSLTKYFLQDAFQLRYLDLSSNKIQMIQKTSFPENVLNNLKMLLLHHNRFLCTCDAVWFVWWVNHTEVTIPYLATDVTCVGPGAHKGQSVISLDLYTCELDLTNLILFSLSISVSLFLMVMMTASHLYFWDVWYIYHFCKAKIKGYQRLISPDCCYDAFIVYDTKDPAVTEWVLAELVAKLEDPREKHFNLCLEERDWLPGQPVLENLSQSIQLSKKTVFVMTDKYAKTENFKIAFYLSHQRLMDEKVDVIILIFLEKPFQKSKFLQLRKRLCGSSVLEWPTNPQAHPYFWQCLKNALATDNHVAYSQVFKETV
How it was run: as §1

SMILES | IC50 (human TLR8) [µM] | IC50 (human TLR9) [µM] | IC50 (human TLR7) [µM]
Cc1cc(-c2[nH]c3cnc(C4CCN(C(=O)CN(C)C)CC4)nc3c2C(C)C)cn(C)c1=O [Example 33, 5-(2-(1-(dimethylglycyl)piperidin-4-yl)-7-isopropyl-5H-pyrrolo[3,2-d]pyrimidin-6-yl)-1,3-dimethylpyridin-2(1H)-one] | 0.1 to 1 | 1 to 50 | < 0.1
Cc1cc(-c2[nH]c3cnc(C4CCN(C5CCOCC5)CC4)nc3c2C(C)C)cn(C)c1=O [Example 21, 5-(7-isopropyl-2-(1-(tetrahydro-2H-pyran-4-yl)piperidin-4-yl)-5H-pyrrolo[3,2-d]pyrimidin-6-yl)-1,3-dimethylpyridin-2(1H)-one] | < 0.1 | 0.1 to 1 | < 0.1
Cc1c(-c2[nH]c3cnc(C4CCN(C5CCOCC5)CC4)nc3c2C(C)C)cn2ncnc2c1C [Example 13, 6-(7-isopropyl-2-(1-(tetrahydro-2H-pyran-4-yl)piperidin-4-yl)-5H-pyrrolo[3,2-d]pyrimidin-6-yl)-7,8-dimeihyl-[1,2,4]triazolo[1,5-a]pyridine] | < 0.1 | 1 to 50 | < 0.1
CCc1c(-c2ccc(OC)c(OC)c2)[nH]c2ncc(C3CCN(C4CCN(C(C)C)CC4)CC3)nc12 [Example 5, 6-(3,4-ditnethoxyphenyl)-7-ethyl-2-(1′-isopropyl-[1,4′-bipiperidin]-4-yl)-5H-pyrrolo[2,3-b]pyrazine] | 0.1 to 1 | 0.1 to 1 | < 0.1
